The values that follow come from patent US20240368191A1, “HETEROCYCLIC COMPOUNDS AND USES THEREOF” (Kumquat Biosciences Inc., priority 2021, published 2024).

Bounds are passed on as bounds.

A short description of data set [1]: Metabolic (microsomal) stability assay. Particulars: pooled liver microsomes, pH 7.4. On the technique in general: Liver microsomes are vesicles of endoplasmic reticulum, rich in cytochrome P450 enzymes.
Description: The metabolic stability of a test compound is assayed at 37° C. using pooled liver microsomes (mouse or human liver microsomes). An aliquot of 10 μL of 50 μM test compound is mixed with 490 μL of 0.611 mg/mL liver microsomes, then 50 μL of the mixtures are dispensed to the 96 well tubes and warmed at 37° C. for 10 minutes. The reactions are initiated by adding 50 μL of the pre-warmed NADPH regeneration system solution (add 1.2 μL solution, 240 μl solution B, mix with 10.56 ml KPBS) and then incubated at 37° C. The final incubation solution contains 100 mM potassium phosphate (pH 7.4), 1.3 mM NADP+, 3.3 mM glucose 6-phosphate, 0.4 Unit/mL of glucose 6-phosphate dehydrogenase, 3.3 mM magnesium chloride, 0.3 mg/mL liver microsomes and 0.5 μM test article. After 0, 15, 30 and 60 minutes in a shaking incubator, the reactions are terminated by adding 100 μL of acetonitrile containing 200 nM buspirone as an internal standard. All incubations are conducted in duplicate. […] Samples are then centrifuged at 3500 rpm for 10 minutes (4° C.) using Sorvall Legend XRT Centrifuge (Thermo Scientific, GE). Supernatants (40 μL) are transferred into clean 96-deep well plates. Each well is added with 160 μL of ultrapure water (Milli-Q, Millipore Corporation) with 0.1% (v/v) formic acid (Fisher Chemical), mixed thoroughly and subjected to LC/MS/MS analysis in MRM positive ionization mode.
All the samples are measured using a mass spectrometer (QTrap 5500 quadrupole/ion trap) coupled with a Shimadzu HPLC system. The HPLC system consisted of a Shimadzu series degasser, binary quaternary gradient pumps, column heater coupled to an autosampler, and a Phenomenex Gemini-NX, C18, 3.0 μm or Phenomenex Lunar, C8, 5.0 μM HPLC column (Phenomenex, Torrance, CA), and eluted with a mobile phase gradient consisting of Solution A (0.1% formic acid water) and Solution B (0.1% formic acid acetonitrile). The column temperature is maintained at 40° C. All the analytes are detected with positive-mode electrospray ionization (ES+).
The half-life for the metabolic degradation of the test compound is calculated by plotting the time-course disappearance of the test compound during the incubation with liver microsomes. Each plot is fitted to a first-order equation for the elimination of the test compound (% remaining compound) versus time using non-linear regression (Equation 1).
where Ct is the mean relative substrate concentration at time t and C0 is the initial concentration (0.5 μM) at time 0. Note that the area ratio of the substrate peak to an internal standard peak is proportional to the analyte concentration and is used for regression analysis to derive a value of k.
The test system of data set [2] is A549 cells. The data set is described as follows: Cell proliferation assay (CellTiter-Glo), K-Ras G12S cells. It is filed as cell-based. Particulars: A549 cells; Comparative Compound A lacking the warhead vs Compound B. On the procedure: A549 (ATCC CRL-185) and LS123 (ATCC CRL-255) cell lines comprise a G12S mutation and can be used to assess Ras cellular signaling in vitro, e.g., in response to the compounds herein. A549 culture medium is prepared with RPMI-1640 and 10% heat-inactivated FBS. LS123 culture medium is prepared with RPMI-1640 and 10% heat-inactivated FBS. A CellTiter-Glo (CTG) luminescent based assay (Promega) is used to assess growth of the cells, as a measurement of the ability of the compounds herein to inhibit Ras signaling in the cells. The cells (e.g., 800 per well) are seeded in their respective culture medium in standard tissue culture-treated 384-well format plates (Falcon #08-772-116) or ultra-low attachment surface 384-well format plates (S-Bio #MS-9384WZ). The day after plating, cells are treated with a dilution series (e.g., a 10 point 3-fold dilution series) of the compounds herein (e.g., approximately 40 μl final volume per well). Cell viability can be monitored (e.g., approximately 6 days later) according to the manufacturer's recommended instructions, where the CellTiter-Glo reagent is added (e.g., approximately 10 μl), vigorously mixed, covered, and placed on a plate shaker (e.g., approximately for 20 min) to ensure sufficient cell lysis prior to assessment of luminescent signal. The IC50 values are determined using the four parameter fit. The resulting IC50 value is a measurement of the ability of the compounds herein to reduce cell growth of Ras-driven cells (e.g., tumor cell lines) in vitro and/or in vivo.
On the technique in general: In ATP-based viability assays light output follows the ATP content of the culture.

Data set [3] deals with T1, KRAS G12D 1-169 (His-tagged, GDP-loaded) (Homo sapiens, UniProt P01116, G12D).
T1 construct: His -tagged GDP-loaded G12D 1-169; made in house; host or cells: E. coli, e.g. BL21 (DE3)
The data set is described as follows: Covalent modification of KRAS protein by intact-protein LC-MS. It is filed as binding. Particulars: comparable or same conditions as K-Ras G12S. In outline: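 Percent modification is derived from deconvoluted intact-protein LC-ESI-MS peak intensities of adducted versus unmodified KRAS. GDP-loaded His-tagged KRAS 1-169 (~2 μM, HEPES buffer at physiological conditions) was exposed to compound for 24 hrs at room temperature, then quenched with formic acid before C4 reversed-phase separation.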

T1 sequence (P01116 1-169 isoform P01116-2 G12D): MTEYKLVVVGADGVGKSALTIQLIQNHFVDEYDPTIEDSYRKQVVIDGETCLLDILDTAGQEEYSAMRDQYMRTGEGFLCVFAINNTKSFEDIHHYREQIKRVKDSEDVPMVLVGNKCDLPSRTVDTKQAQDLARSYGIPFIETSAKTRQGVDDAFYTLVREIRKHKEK

Usually half-life stands for how long it takes for the measured level to halve. Read a low half-life as rapid decline. In data set [1], `N#CCc1ncn(C(=O)N2CC3(C2)CN(c2nc(OC[C@@]45CCCN4C[C@H](F)C5)nc4c(F)c(-c5ccc(F)c6sc(N)c(C#N)c56)c(Cl)cc24)CCO3)n1` [Compound A110, 2-amino-4-(6-chloro-4-(2-(3-(cyanomethyl)-1H-1,2,4-triazole-1-carbonyl)-5-oxa-2,8-diazaspiro[3.5]nonan-8-yl)-8-fluoro-2-(((2R,7aS)-2-fluoro-tetrahydro-1H-pyrrolizin-7a(5H)-yl)methoxy)quinazolin-7-yl)-7-fluorobenzo[b]thio-phene-3-carbonitrile] showed a half-life at 0.5 μM of over 10 min. The “Compound IC50 Ratio IC50 (Cpd A):IC50 (Cpd B)” value in data set [2] is on record as >4 (A549 cells). The “covalent labeling of K-Ras G12D” value in data set [3] was “essentially no detectable labeling”.

For `CN1CCC[C@H]1COc1nc(N2CCOC3(CN(C(=O)n4cncn4)C3)C2)c2cc(Cl)c(-c3ccc(F)c4sc(N)c(C#N)c34)c(F)c2n1` [Compound A137, 4-(4-(2-(1H-1,2,4-triazole-1-carbonyl)-5-oxa-2,8-diaza-spiro[3.5]nonan-8-yl)-6-chloro-8-fluoro-2-(((S)-1-methylpyr-rolidin-2-yl)methoxy)quinaz-olin-7-yl)-2-amino-7-fluoro-benzo[b]thiophene-3-carbonitrile], the “Compound IC50 Ratio IC50 (Cpd A):IC50 (Cpd B)” value in data set [2] is reported as >4 (A549 cells). In data set [3], the “covalent labeling of K-Ras G12D” value is “essentially no detectable labeling”.
